Test results: patent US8916717B2, “Dioxaspiroketal derivatives, process for their preparation and uses thereof” (Consiglio Nazionale Delle Ricerche, priority 2006, dated 2014)
Read-outs that look alike come from different tables or passages of the source. Blank lines part the entries; values can stand above or below the molecule they belong to.

Experiments:
Cδ protein kinase = Cδ protein kinase (Homo sapiens, UniProt Q05655); details: Watters et al., 1998; cited from earlier work
[1] = tested on: M14 malignant melanoma cells; test: Cell cycle by flow cytometry analysis (propidium iodide); assay type: cell-based, human; details: M14, starting from 10 μg/ml dose, after 24 hours of treatment
Procedure: (§1) For apoptosis and cellular cycle analysis, control or various concentration MS treated cells have been removed from the culture by means of trypsinization, re-suspended in PBS, washed two times with cold PBS and fixed with 50% of acetone and methanol (1:4) in PBS at 4° C. Fixed cells then were washed in PBS and stained with propidium iodide 50 μg/ml (PI) in the presence of RNase A 100 KU/ml.
(§2) Samples have been analyzed using a FACScan cytometer and fluorescence propidium red signals have been registered on linear scale. Cell fluorescence has been analyzed using a FACScan flow cytometer (Becton Dickinson, USA) using a 488 nm emitting argon laser. Data have been analyzed electronically excluding detritus and cell aggregates. In the red fluorescence, that is proportional to the DNA cell content, the apoptotic cells are represented by hypodiploid peak (cells with DNA fractioned content), easy distinguishable from the healthy cell DNA diploid peak. The fraction of the apoptotic cells is calculated integrating the pre-G1 peak. This cell fraction is representative for those having a PI decreasing coloration, considered a marker of DNA fragmentation, phenomenon associated to cell death by apoptosis. The analysis of cell cycle distribution after 24, 48 and 72 hours of MS treatment has been carried out using ModFitLT software (Becton Dickinson Immunocytometry Systems).

telomerase = biological target: T1, telomerase (Homo sapiens, UniProt O14746); test: Telomerasic activity (TeloTAGGG Telomerase PCR ELISA) in extracts of treated tumor cells; assay type: cell-based; details: 48 hours; for telomerase enzymatic activity: 1.25 μg/ml; for inhibition at 12.5 µg/mL / inhibition at 25 µg/mL: read-out: telomerase inhibition in comparison to control
T1 construct: endogenous in cells; host or cells: MCF-7, H-125 and M14 tumour cells
Procedure: Telomerasic activity was evaluated using TeloTAGGG Telomerase PCR ELISA kit, photometric enzymatic immunoassay from Roche (Mannheim, Germany). At time of the test, frozen pellet was lysed directly in the tests-tube using 80 μl of cold extraction buffer. Telomerase amplification was carried out by PCR (30 cycles, 94° C. 30 sec; 52° C. 30 sec; 72° C. 45 sec). Telomerasic activity was determined on the cell extracts according to the protocol recommended by the supplier. Sample absorbance (OD, optical density) was measured at 450 nm in a multi-well plate reader (SpectraCount, Pakard, Meriden, Conn., USA). In order to evaluate telomerasic activity, MCF-7, H-125 and M14 tumor cells were treated for 48 hours with serial doses of methyl-spirane (from 1.25 μg/ml to 50 μg/ml) as above described. Subsequently, the cells have been detached from culture plates by trypsinization, centrifuged, pelletized, and stored at −80° C. until the use.
As to telomerase, the cells have been exposed in vitro at 1.25, 12.5, 25, 50 μg/ml of methyl-spirane and evaluated for telomerasic activity (TLMA) using ELISA assay, 48 hours after the treatment. […] Particularly, in the FIG. 10, panels A-C, the effects at various concentrations (1.25, 12.5, 25, 50) of methyl-spirane on MCF-7, H-125 and M14 cell, lines after 48 hours of treatment are shown.

[2] = tested on: peripheral blood lymphocytes (PBL) from healthy donors; test: Toxicity on not tumor healthy human cells, supravital propidium iodide method; assay type: cell-based; details: for % apoptotic / % necrotic / % viable: PBL, 48 hours
Procedure: […] After 24 and 48 hours of culture, treated lymphocytes have been analyzed using supravital propidium iodide method (PI).
IN short this system is based on the use of propidium iodide, a fluorescent marker for the cellular DNA that normally penetrates only into the fixed or permeable made cells. PI supravital method is based on the principle that supravital exposure to propidium (high concentration of propidium for some hours at 37° C.) of not previously permeable made cells identifies in the population apoptotic cells clearly distinguishing them from necrotic or viable ones. Cells labeled with 40 μg/ml of propidium iodide directly in culture plates, are incubated at 37° for 1 hour and 30 minutes and analyzed using the flow cytometer.

M14 cell line (melanoma) = test: Cell apoptosis and necrosis by flow cytometry analysis; assay type: cell-based, human
Procedure: as §1
as §2, with “This cell fraction is representative for those having a PI decreasing coloration, considered a marker of DNA fragmentation, phenomenon associated to cell death by apoptosis. The analysis of cell cycle distribution after 24, 48 and 72 hours of MS treatment has been carried out using ModFitLT software (Becton Dickinson Immunocytometry Systems).” left out
For the necrosis evaluation, an aliquot of not fixed cells (1×10^6) was incubated with 40 μg/ml PI for 1.5 hour at 37° C. The samples, directly in their coloring solution, have been then analyzed using FACScan flow. […] Apoptotic cells have been detected by FSC/PI dot plot as PI^dim peak, meanwhile P^− and PI^bright represent viable and necrotic cells, respectively.

MCF-7 cells = test: Cell proliferation and viability determination (trypan blue dye exclusion cell counts); assay type: cell-based, human; details: 1.25 μg/ml
Procedure: The study has been carried out using representative tumor cell lines with different histological origin: MCF-7 breast carcinoma (human), M14 (human) and B16 (murine) melanomas, H125 (human) pulmonary carcinoma, HT-29 (human) colon carcinoma, HL-60 (human) promyelocytic leukemia.
All cell lines have been cultured in RPMI-1640 (Hyclone Europe, Cramlington, UK) medium supplemented with 10% of heat inactivated (56° C., 30 minutes) bovine fetal serum (Hyclone Laboratories, Logan, Utah), 2 mM L-glutamine and antibiotics (Life Technologies Ltd., Paisley, Scotland) (complete medium, CM). Cells have been stored at 37° C. in humidified atmosphere with 5% CO2.
Cell suspensions (HL-60) have been harvested and counted. Plastic adherent cells, in semi-confluence condition, have been detached by a short exposure at 0.025% trypsin with 0.01% EDTA and counted.
All used tumor cells have been harvested, suspended in CM and seeded in 24-well plates at 10^5 cell concentration in a final volume of 2 ml/well. For adherent cells a pre-incubation for 18 hours has been carried out in order to promote the adhesion to plastic. […] The cell proliferation, viability and death have been determined by means of cell counts in trypan blue (dye exclusion test) using a hemocytometer.

[3] = tested on: 60 haematological and epithelial human cancer cell lines of NCI panel; details: 60 human cancer cell lines, NCI panel (Uckun et al., 2000); cited from earlier work

T1 sequence (O14746 whole entry): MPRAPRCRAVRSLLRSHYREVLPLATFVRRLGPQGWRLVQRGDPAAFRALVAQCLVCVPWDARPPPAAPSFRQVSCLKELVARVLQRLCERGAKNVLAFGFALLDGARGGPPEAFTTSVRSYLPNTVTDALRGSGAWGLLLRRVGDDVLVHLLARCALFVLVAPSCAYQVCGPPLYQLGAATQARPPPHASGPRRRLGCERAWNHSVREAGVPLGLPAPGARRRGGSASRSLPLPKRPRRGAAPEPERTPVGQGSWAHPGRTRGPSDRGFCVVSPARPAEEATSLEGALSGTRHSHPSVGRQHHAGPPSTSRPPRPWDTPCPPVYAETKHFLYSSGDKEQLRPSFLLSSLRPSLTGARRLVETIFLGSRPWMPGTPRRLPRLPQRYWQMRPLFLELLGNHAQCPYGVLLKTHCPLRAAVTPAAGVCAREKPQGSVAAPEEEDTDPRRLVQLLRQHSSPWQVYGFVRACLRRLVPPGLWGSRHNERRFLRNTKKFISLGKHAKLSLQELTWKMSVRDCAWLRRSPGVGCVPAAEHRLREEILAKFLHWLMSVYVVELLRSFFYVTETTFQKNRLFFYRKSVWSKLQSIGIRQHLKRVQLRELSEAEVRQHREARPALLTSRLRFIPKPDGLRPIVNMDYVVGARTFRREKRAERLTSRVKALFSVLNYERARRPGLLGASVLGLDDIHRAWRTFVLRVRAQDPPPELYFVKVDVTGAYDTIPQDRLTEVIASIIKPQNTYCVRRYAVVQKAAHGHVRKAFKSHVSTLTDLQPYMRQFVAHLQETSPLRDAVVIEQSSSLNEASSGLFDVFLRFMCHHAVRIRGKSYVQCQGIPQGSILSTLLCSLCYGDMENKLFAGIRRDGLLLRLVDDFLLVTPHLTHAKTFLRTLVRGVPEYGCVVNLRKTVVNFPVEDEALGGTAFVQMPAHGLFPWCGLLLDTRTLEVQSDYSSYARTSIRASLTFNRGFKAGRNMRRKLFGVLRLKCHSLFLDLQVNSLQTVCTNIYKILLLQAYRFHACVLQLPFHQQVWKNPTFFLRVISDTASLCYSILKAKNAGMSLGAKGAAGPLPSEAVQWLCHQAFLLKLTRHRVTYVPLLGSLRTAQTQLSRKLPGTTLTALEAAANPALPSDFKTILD
Sequence of Cδ protein kinase (Q05655 whole entry): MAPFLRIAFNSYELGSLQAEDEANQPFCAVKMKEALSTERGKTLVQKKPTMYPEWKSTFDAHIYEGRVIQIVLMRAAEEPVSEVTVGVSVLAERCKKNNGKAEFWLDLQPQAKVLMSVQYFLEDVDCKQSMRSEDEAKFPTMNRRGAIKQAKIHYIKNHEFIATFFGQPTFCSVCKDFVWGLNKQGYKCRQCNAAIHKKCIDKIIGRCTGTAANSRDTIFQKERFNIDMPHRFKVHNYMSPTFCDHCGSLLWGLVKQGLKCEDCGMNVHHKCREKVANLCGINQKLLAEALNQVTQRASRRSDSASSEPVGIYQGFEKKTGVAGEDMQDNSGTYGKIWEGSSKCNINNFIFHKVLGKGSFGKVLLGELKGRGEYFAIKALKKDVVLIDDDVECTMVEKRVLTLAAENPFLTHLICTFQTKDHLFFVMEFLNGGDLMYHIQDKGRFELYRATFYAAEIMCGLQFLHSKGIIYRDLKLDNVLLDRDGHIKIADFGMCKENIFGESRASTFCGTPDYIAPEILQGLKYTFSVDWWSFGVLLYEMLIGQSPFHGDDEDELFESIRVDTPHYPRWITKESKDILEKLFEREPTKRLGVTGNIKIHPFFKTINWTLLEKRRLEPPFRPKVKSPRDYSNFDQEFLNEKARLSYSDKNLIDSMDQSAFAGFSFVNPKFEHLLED

Molecule: C/C=C/C(=O)CC1CCC(C)C(CC(=O)NCC(O)C(C)C(=O)NCCCC2OC3(CCC2C)COCC(CCC(C)/C=C(\C)C(C)O)C3)O1 (centres unmarked) [B[…]]
activation of Cδ protein kinase (PKCs isoform) (Cδ protein kinase): specific activator

telomerase enzymatic activity (telomerase; H-125): very scarcely influenced
telomerase enzymatic activity (telomerase; MCF-7): very scarcely influenced
inhibition at 12.5 µg/mL (telomerase; 12.5 μg/ml, M14): 61%
inhibition at 25 µg/mL (telomerase; 25 μg/ml, M14): 75%
inhibition at 50 µg/mL (telomerase; 50 μg/ml, two cell lines not named (of MCF-7, H-125, M14)): 80%
telomerasic activity (TLMA) (telomerase; 1.25, 12.5, 25, 50 μg/ml, all the examined cell lines): concentration-dependent reduction
inhibition at 12.5 µg/mL (telomerase; MCF7, 12.5 μg/ml, MCF-7): 43%
inhibition at 25 µg/mL (telomerase; MCF7, 25 μg/ml, MCF-7): 64%
inhibition at 12.5 µg/mL (telomerase; NCI-H125, 12.5 μg/ml, H-125): 50%
inhibition at 25 µg/mL (telomerase; NCI-H125, 25 μg/ml, H-125): 68%
Molecule: CC1CCCC2(OC(O)C=CC2=O)O1 (centres unmarked) [methyl-spirane, 1,7-dioxaspiro[5,5]-8-methyl-undecen-3-en-5-oxa-2-ol]
effect on cell cycle (G1 step) [1]: increment of the G1 step
% apoptotic ([2]; 3.15 μg/ml): 2.5%
% necrotic ([2]; 3.15 μg/ml): 16%
% viable ([2]; 3.15 μg/ml): 81.5%
% apoptotic ([2]; 6.25 μg/ml): 6.4%
% necrotic ([2]; 6.25 μg/ml): 15.6%
% viable ([2]; 6.25 μg/ml): 78%
% apoptotic ([2]; 12.5 μg/ml): 30.1%
% necrotic ([2]; 12.5 μg/ml): 40.0%
% viable ([2]; 12.5 μg/ml): 29.7%
% apoptotic ([2]; 25 μg/ml): 33.1%
% necrotic ([2]; 25 μg/ml): 56.6%
% viable ([2]; 25 μg/ml): 10.0%
% apoptotic ([2]; 50 μg/ml): 21.7%
% necrotic ([2]; 50 μg/ml): 70.0%
% viable ([2]; 50 μg/ml): 8.2%
% apoptotic ([2]; 100 μg/ml): 15.0%
% necrotic ([2]; 100 μg/ml): 84.0%
% viable ([2]; 100 μg/ml): 1.0%
necrosis with respect to the control on human lymphocytes ([2]; low concentrations (for example, 1.25 μg/ml)): no increase of necrosis
apoptosis induction (M14 cell line (melanoma); M14, 25 μg/ml, after 24 hours): apoptosis is already observed
concentration-dependent increase of apoptosis (M14 cell line (melanoma); M14, concentrations higher than 1.25 μg/ml, after 72 hours of treatment): 30-50%
effect on tumour cell growth in vitro (MCF-7 cells): inhibiting effects

Molecule: spongistatin 1
cytotoxicity IC50 [3]: sub-nanomolar
